Measured values published in US11491117B2, “Compounds for the prevention and treatment of glucose intolerance related conditions and obesity” (SORBONNE UNIVERSITÉ, priority 2017, dated 2022).

Key:
pancreas gene expression [1] = experiment: Quantitative RT-PCR in pancreas of chronically treated GK rats; assay type: in vivo, rat
Protocol: RNA was extracted from pancreas, adipose tissue and liver using the RNeasy RNA Mini Kit (Qiagen, Courtaboeuf, France). Reverse transcription was performed from a 20 μL reaction mixture with 500 ng RNA using M-MLV reverse transcriptase kit (ThermoFisher, Villebon, France). Quantitative RT-PCR was performed using sequence specific primers and the MESA green kit for SYBR green assays (Eurogentec, Angers, France). We used 18S and/or cyclophilin house keeping genes to normalize relative quantification of mRNA levels using the Livak and […] methods ([…], 2001).

Goto-Kakizaki (GK) rats = experiment: Pancreas histology and immunohistochemistry of chronically treated GK rats; assay type: in vivo, rat
Protocol: Pancreas sections were labeled either with Hematoxylin-Eosin and Immunohistochemistry to determine insulin positive area (FIG. 9F) and treated with Ki 67 and DAPI to stain and quantify proliferative nuclei (FIG. 9G). […] All measures are from 6 rats per group. Data were analyzed using the unpaired Mann-Whitney test. […] Tissues were drop-fixed in 4% paraformaldehyde (Sigma-Aldrich, Saint Quentin Fallavier, France) immediately after collection and put through an automated carousel processor for dehydration, clearing, and paraffin embedding (Leica, Nanterre, France). Sections were prepared for liver (6 μm), pancreas (6 μm) and adipose tissue ([…]) and mounted on slides (DPX polymerizing mountant, Sigma-Aldrich, Saint Quentin Fallavier, France). Hematoxylin and Eosin (H&E) was used to evaluate tissue morphology. Epitope-specific antibodies were used for immunohistochemistry detection of insulin on pancreas sections (Dako, Saint Aubin, France). […] Quantitative expression of all immunostainings was performed using positive pixels algorithm (Indica Labs, Corrales, N. Mex.). […] Results are expressed as percentage of positive pixels, within islets where indicated. The quantification method is an automated observer-independent process based on section scanning and application of publicly available algorithms. […]

pancreas gene expression [2] = experiment: Quantitative RT-PCR and NAD/NADH in total pancreas of chronically treated mice; assay type: in vivo, mouse
Protocol: Blood glucose was measured using an Accu-Check® Performa (Roche Diagnostics, Meylan, France) and plasma insulin was determined using Insulin ELISA kits (Mercodia, Uppsala, Sweden). For determination of liver triglycerides, liver samples (100 mg) were homogenized and incubated in NonidetP-40 (5%) and supernatants containing triglycerides were collected. Triglycerides concentration was quantified in the supernatant fraction using a colorimetric assay (ab65336, Abcam, Paris, France) by measuring OD at 570 nm. The ratio NAD/NADH was determined using a quantification kit (MAK037; […] Samples were homogenized in the extraction buffer and clarified by centrifugation. Supernatant was deproteinized by filtration through a 10-kDa cutoff spin filter (Millipore SAS, Molsheim, France). The assay was then performed according to the manufacturer's instructions. RNA was extracted from pancreas, adipose tissue and liver using the RNeasy RNA Mini Kit (Qiagen, Courtaboeuf, France). Reverse transcription was performed from a 20 μL reaction mixture with 500 ng RNA using M-MLV reverse transcriptase kit (ThermoFisher, Villebon, France). Quantitative RT-PCR was performed using sequence specific primers and the MESA green kit for SYBR green assays (Eurogentec, Angers, France). We used 18S and/or cyclophilin house keeping genes to normalize relative quantification of mRNA levels using the Livak and […] methods ([…], 2001).

[3] = CHD-fed mice, not statistically significant

Cc1ccc(O)cc1 [4-cresol]
stimulatory effects on expression of Sirt1, Ins1, Hnf1α, IL10 and Vegfa in pancreas (pancreas gene expression [1]; GK rats): replicated
pancreatic expression of ERα (pancreas gene expression [1]; GK rats in vivo): does not regulate significantly
DYRK1A pancreatic transcription (pancreas gene expression [1]; GK rats, chronic treatment): significant downregulation
expression of genes encoding amylase, IL6 and Tnf in pancreas (pancreas gene expression [1]; GK rats, differences to saline not statistically significant): strongly altered
cell proliferation (Ki 67 labeling) in pancreas (Goto-Kakizaki (GK) rats): increased cell proliferation
insulin positive area (Goto-Kakizaki (GK) rats): significant increase
expression of Ins1 and Hnf1α in pancreas (pancreas gene expression [2]; [3]): Enhanced expression
expression of Ucp2 in pancreas (pancreas gene expression [2]; [3]): reduced expression
transcription of genes encoding amylase, Vegf, Bdnf, IL10 and Sirt1 in pancreas (pancreas gene expression [2]; CHD-fed mice, vs saline-treated CHD-fed mice): increased transcription
IL10 transcript level in pancreas (pancreas gene expression [2]; HFD-fed mice): remained elevated
expression of Bdnf, Hnf1α, Pdx1 and Vegf in pancreas (pancreas gene expression [2]; HFD-fed mice, differences not statistically significant): strongly overexpressed
pancreatic expression of ERα (pancreas gene expression [2]; fat fed mice in vivo): does not regulate significantly
expression of Ucp2, IL6 and Tnf in pancreas (pancreas gene expression [2]; mice fed HFD, vs HFD saline): significantly reduced expression
expression of genes encoding Sirt1 and Ins1 in pancreas (pancreas gene expression [2]; mice fed HFD, vs HFD saline): significant overexpression
DYRK1A pancreatic transcription (pancreas gene expression [2]; mice fed control or HFD, chronic treatment): significant downregulation
